Some results are limits rather than exact numbers.

The target of the first experiment is T1, human PAH with the R408W mutation (Homo sapiens, UniProt P00439, R408W).
T1 construct: expressed in transfected cells
T1 sequence (P00439 1-452 R408W): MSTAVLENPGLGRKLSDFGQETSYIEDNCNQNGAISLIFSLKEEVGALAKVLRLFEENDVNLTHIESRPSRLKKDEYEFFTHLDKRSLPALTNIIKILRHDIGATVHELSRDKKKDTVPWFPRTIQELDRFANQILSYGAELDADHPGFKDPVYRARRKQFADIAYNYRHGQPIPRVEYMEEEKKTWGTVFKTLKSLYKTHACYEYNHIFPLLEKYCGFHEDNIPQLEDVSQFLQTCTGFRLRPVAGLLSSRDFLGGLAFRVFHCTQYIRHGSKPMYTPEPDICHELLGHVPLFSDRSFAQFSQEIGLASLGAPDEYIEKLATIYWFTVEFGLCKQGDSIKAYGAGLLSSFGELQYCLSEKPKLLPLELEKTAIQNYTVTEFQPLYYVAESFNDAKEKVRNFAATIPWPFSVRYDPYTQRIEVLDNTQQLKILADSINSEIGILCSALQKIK
The experiment can be described thus: Cell Based Phenylalanine Flux Assay. The conditions noted are these: A375 cells expressing human R408W PAH; 24 hrs compound incubation; 13C-Tyrosine by LC-MS; average where tested multiple times; read-out: AC50.
Consider `Cn1cc(-c2nnc(C(=O)N3CCc4[nH]cnc4[C@@H]3c3nc4ccccc4s3)o2)cn1` [Example 1461, (R)-(4-(benzo[d]thiazol-2-yl)-6,7-dihydro-1H-imidazo[4,5-c]pyridin-5(4H)-yl)(5-(1-methyl-1H-pyrazol-4-yl)-1,3,4-oxadiazol-2-yl)methanone], for which the concentration at half-maximal activity (AC50) fell in the range of 1 to 5 µM.
On the same count and under the same terms, to `Cn1cc(-c2nnc(C(=O)N3CCc4[nH]cnc4[C@H]3c3nc4ccccc4s3)o2)c(C(F)(F)F)n1` [Example 1883] belongs less than 0.5 µM; to `COCCn1nccc1C(=O)N1CCc2[nH]cnc2[C@H]1c1nc2c(F)cccc2s1` [Example 1723, (S)-(4-(4-fluorobenzo[d]thiazol-2-yl)-6,7-dihydro-1H-imidazo[4,5-c]pyridin-5(4H)-yl)(1-(2-methoxyethyl)-1H-pyrazol-5-yl)methanone], less than 0.5 µM.
Turning to `CC(C)(O)c1c(Br)ccc2c(C(=O)N3CCc4[nH]cnc4[C@H]3c3nc4ccccc4s3)cnn12` [Example 1475], the AC50 is less than 0.5 µM.
As to `Cc1nc(C(C)(C)O)oc1C(=O)N1CCc2[nH]cnc2[C@H]1c1nc2c(F)cccc2s1` [Example 1471, (S)-(4-(4-fluorobenzo[d]thiazol-2-yl)-6,7-dihydro-1H-imidazo[4,5-c]pyridin-5(4H)-yl)(2-(2-hydroxypropan-2-yl)-4-methyloxazol-5-yl)methanone], the AC50 was less than 0.5 µM.
The same measure, in the same setting: with `O=C(c1nnc(-c2cnn(CC(F)F)c2)o1)N1CCc2[nH]cnc2[C@H]1c1nc2c(F)cccc2s1` [Example 1882, (S)-(5-(1-(2,2-difluoroethyl)-1H-pyrazol-4-yl)-1,3,4-oxadiazol-2-yl)(4-(4-fluorobenzo[d]thiazol-2-yl)-6,7-dihydro-1H-imidazo[4,5-c]pyridin-5(4H)-yl)methanone] the figure was less than 0.5 µM.
The same measure, in the same setting: to `O=C(c1cnn2ccc(Cl)cc12)N1CCc2[nH]cnc2[C@H]1c1nc2cc(F)ccc2s1` [Example 1167] belongs 0.5 to 1 µM.
Same read-out and setting: with `Cc1ccc2c(C(=O)N3CCc4[nH]cnc4[C@@H]3c3nc4ccccc4s3)cnn2c1` [Example 1088, (R)-(4-(benzo[d]thiazol-2-yl)-6,7-dihydro-1H-imidazo[4,5-c]pyridin-5(4H)-yl)(6-methylpyrazolo[1,5-a]pyridin-3-yl)methanone] the figure was more than 5 µM; with `O=C(CCc1nccs1)N1CCc2[nH]cnc2[C@H]1c1nc2ccccc2[nH]1` [Example 900, (S)-1-(4-(1H-benzo[d]imidazol-2-yl)-6,7-dihydro-1H-imidazo[4,5-c]pyridin-5(4H)-yl)-3-(thiazol-2-yl)propan-1-one], 0.5 to 1 µM.
As for `c1ccc2sc([C@H]3c4nc[nH]c4CCN3Cc3nccs3)nc2c1` [Example 1140, (R)-2-(5-(thiazol-2-ylmethyl)-4,5,6,7-tetrahydro-1H-imidazo[4,5-c]pyridin-4-yl)benzo[d]thiazole], the AC50 is 1 to 5 µM.
As to `Cn1nc(Cl)cc1C(=O)N1CCc2[nH]cnc2[C@@H]1c1nc2ccccc2s1` [Example 1924, (R)-(4-(benzo[d]thiazol-2-yl)-6,7-dihydro-1H-imidazo[4,5-c]pyridin-5(4H)-yl)(3-chloro-1-methyl-1H-pyrazol-5-yl)methanone], the half-maximal activity concentration (AC50) lay within 1 to 5 µM.
For the compound `C[C@@H](O)c1nc(C(F)F)c(C(=O)N2CCc3[nH]cnc3[C@@H]2c2nc3c(C(F)(F)F)cccc3s2)o1` [Example 2110, (4-(difluoromethyl)-2-((R)-1-hydroxyethyl)oxazol-5-yl)((R)-4-(4-(trifluoromethyl)benzo[d]thiazol-2-yl)-6,7-dihydro-1H-imidazo[4,5-c]pyridin-5(4H)-yl)methanone], the half-maximal activity concentration (AC50) lay within 1 to 5 µM.
As to `CC(F)(F)c1ncc(C(=O)N2CCc3[nH]cnc3[C@@H]2c2nc3ccccc3s2)s1` [Example 1512, (R)-(4-(benzo[d]thiazol-2-yl)-6,7-dihydro-1H-imidazo[4,5-c]pyridin-5(4H)-yl)(2-(1,1-difluoroethyl)thiazol-5-yl)methanone], the AC50 fell in the range of 1 to 5 µM.
On the same count and under the same terms, with `N#Cc1ccn2ncc(C(=O)N3CCc4[nH]cnc4[C@H]3c3nc4cc(F)ccc4s3)c2c1` [Example 1160, (S)-3-(4-(5-fluorobenzo[d]thiazol-2-yl)-4,5,6,7-tetrahydro-1H-imidazo[4,5-c]pyridine-5-carbonyl)pyrazolo[1,5-a]pyridine-5-carbonitrile] the figure was 0.5 to 1 µM; with `CC(O)c1nc(Br)c(C(=O)N2CCc3[nH]cnc3[C@@H]2c2nc3c(F)cccc3s2)o1` (single isomer, unassigned) [Example 2059], 1 to 5 µM.
As for `CC(C)(O)c1nc(C#N)c(C(=O)N2CCc3[nH]cnc3[C@H]2c2nc3ccccc3s2)o1` [Example 1697, (S)-5-(4-(benzo[d]thiazol-2-yl)-4,5,6,7-tetrahydro-1H-imidazo[4,5-c]pyridine-5-carbonyl)-2-(2-hydroxypropan-2-yl)oxazole-4-carbonitrile], the AC50 was in the range of 0.5 to 1 µM.
On the same count and under the same terms, with `CC(C)(F)c1nnc(C(=O)N2CCc3[nH]cnc3[C@@H]2c2nc3c(F)cccc3s2)o1` [Example 1835, (R)-(4-(4-fluorobenzo[d]thiazol-2-yl)-6,7-dihydro-1H-imidazo[4,5-c]pyridin-5(4H)-yl)(5-(2-fluoropropan-2-yl)-1,3,4-oxadiazol-2-yl)methanone] the figure was 1 to 5 µM; with `CC(O)c1nc(Cl)c(C(=O)N2CCc3[nH]cnc3[C@@H]2c2nc3c(F)cccc3s2)o1` (single isomer, unassigned) [Example 2082], 1 to 5 µM; with `O=C(CCC1CC1)N1CCc2[nH]cnc2[C@@H]1c1nc2ccc(F)cc2s1` [Example 1094, (R)-3-cyclopropyl-1-(4-(6-fluorobenzo[d]thiazol-2-yl)-6,7-dihydro-1H-imidazo[4,5-c]pyridin-5(4H)-yl)propan-1-one], more than 5 µM.
The same measure, in the same setting: to `O=C(c1cnn2ccc(F)cc12)N1CCc2[nH]cnc2[C@H]1c1nc2c(F)cccc2s1` [Example 1170, (S)-(4-(4-fluorobenzo[d]thiazol-2-yl)-6,7-dihydro-1H-imidazo[4,5-c]pyridin-5(4H)-yl)(5-fluoropyrazolo[1,5-a]pyridin-3-yl)methanone] belongs 0.5 to 1 µM; to `CC(F)(F)c1ncc(C(=O)N2CCc3[nH]cnc3[C@H]2c2nc3ccccc3s2)s1` [Example 1511], less than 0.5 µM; to `CC(C)(O)c1nc(C(F)F)c(C(=O)N2CCc3[nH]cnc3[C@H]2c2nc3c(F)cccc3s2)s1` [Example 2085, (S)-(4-(difluoromethyl)-2-(2-hydroxypropan-2-yl)thiazol-5-yl)(4-(4-fluorobenzo[d]thiazol-2-yl)-6,7-dihydro-1H-imidazo[4,5-c]pyridin-5(4H)-yl)methanone], less than 0.5 µM.
`O=C(c1cnn2ccc(Cl)cc12)N1CCc2[nH]cnc2[C@@H]1c1nc2ccc(F)cc2s1` [Example 1152, (R)-(5-chloropyrazolo[1,5-a]pyridin-3-yl)(4-(6-fluorobenzo[d]thiazol-2-yl)-6,7-dihydro-1H-imidazo[4,5-c]pyridin-5(4H)-yl)methanone]: the AC50 was more than 5 µM.
On to `O=C(c1nnc(-c2cn[nH]c2)o1)N1CCc2[nH]cnc2[C@@H]1c1nc2ccccc2s1` [Example 1922, (R)-(5-(1H-pyrazol-4-yl)-1,3,4-oxadiazol-2-yl)(4-(benzo[d]thiazol-2-yl)-6,7-dihydro-1H-imidazo[4,5-c]pyridin-5(4H)-yl)methanone], for which the concentration at half-maximal activity (AC50) fell in the range of 1 to 5 µM.
On the same count and under the same terms, with `O=C(CCc1nccs1)N1CCc2[nH]cnc2[C@@H]1c1nc2ccc(Br)cc2s1` [Example 1082, (R)-1-(4-(6-bromobenzo[d]thiazol-2-yl)-6,7-dihydro-1H-imidazo[4,5-c]pyridin-5(4H)-yl)-3-(thiazol-2-yl)propan-1-one] the figure was more than 5 µM.
Take `Cc1nc(C(C)(C)C)oc1C(=O)N1CCc2[nH]cnc2[C@H]1c1nc2ccccc2s1` [Example 1431]: the AC50 was less than 0.5 µM.
In the case of `CC(C)(O)c1nc(C(F)(F)F)c(C(=O)N2CCc3[nH]cnc3[C@@H]2c2nc3c(F)cccc3s2)o1` [Example 1542, (R)-(4-(4-fluorobenzo[d]thiazol-2-yl)-6,7-dihydro-1H-imidazo[4,5-c]pyridin-5(4H)-yl)(2-(2-hydroxypropan-2-yl)-4-(trifluoromethyl)oxazol-5-yl)methanone], the concentration at half-maximal activity (AC50) was less than 0.5 µM.
With `O=C(c1nnc(-c2c[nH]nc2C(F)(F)F)o1)N1CCc2[nH]cnc2[C@H]1c1nc2ccccc2s1` [Example 1965], the half-maximal activity concentration (AC50) fell in the range of 0.5 to 1 µM.
The same measure, in the same setting: with `Cc1nc(CC2CC2)oc1C(=O)N1CCc2[nH]cnc2[C@@H]1c1nc2ccccc2s1` [Example 1400, (R)-(4-(benzo[d]thiazol-2-yl)-6,7-dihydro-1H-imidazo[4,5-c]pyridin-5(4H)-yl)(2-(cyclopropylmethyl)-4-methyloxazol-5-yl)methanone] the figure was 1 to 5 µM; with `Cn1ncc(C(=O)N2CCc3[nH]cnc3[C@H]2c2nc3ccccc3s2)c1C(F)F` [Example 1819], 0.5 to 1 µM.
On the same count and under the same terms, with `CCn1cnnc1C(=O)N1CCc2[nH]cnc2[C@H]1c1nc2c(F)cccc2s1` [Example 2044] the figure was 0.5 to 1 µM.

The experiment is the same for the next values; noted with them: A375 cells expressing human R408W PAH; 24 hrs with compound; 13C-Tyrosine by LC-MS; average where tested multiple times; read-out: AC50.
With `Clc1csc(CN2CCc3[nH]cnc3C2c2nc3ccccc3[nH]2)n1` (centres unmarked), the half-maximal activity concentration (AC50) is more than 5 µM.
With `Cn1nc(C2CC2)nc1C(=O)N1CCc2[nH]cnc2C1c1nc2ccccc2s1` (centres unmarked), the half-maximal activity concentration (AC50) fell in the range of 1 to 5 µM.
As to `CN(C)CCn1cc(C(=O)N2CCc3[nH]cnc3C2c2nc3ccccc3s2)c(C#N)n1` (centres unmarked), the half-maximal activity concentration (AC50) is 1 to 5 µM.
Take `O=C(c1cnn2cc(Cl)ccc12)N1CCc2[nH]cnc2C1c1nc2ccc(Cl)cc2[nH]1` (centres unmarked): the AC50 is more than 5 µM.

As usually defined, the AC50 is the concentration at which the activity in the assay is half-maximal.

(Values after US20250171438A1 (Agios Pharmaceuticals, Inc., priority 2022, published 2025).)
